Results published in US11795170B2 (Genentech, Inc., priority 2016, dated 2023).

Columns and labels:
[1] = target: T1, isolated recombinant JAK1 kinase domain (Homo sapiens, UniProt P23458); experiment: JAK1 enzyme assay (Caliper LabChip, peptide phosphorylation); format: biochemical; conditions: 1.5 nM JAK1, 25 μM ATP, 22° C., 30 minutes; Morrison tight binding model
T1 construct: The activity of the isolated recombinant JAK1 and JAK2 kinase domain was measured
Method: (§1) JAK Enzyme Assays were Carried Out as Follows:
(§2) The activity of the isolated recombinant JAK1 and JAK2 kinase domain was measured by monitoring phosphorylation of a peptide derived from JAK3 (Val-Ala-Leu-Val-Asp-Gly-Tyr-Phe-Arg-Leu-Thr-Thr, fluorescently labeled on the N-terminus with 5-carboxyfluorescein) using the Caliper LabChip® technology (Caliper Life Sciences, Hopkinton, Mass.). To determine inhibition constants (K), compounds were diluted serially in DMSO and added to 50 μL kinase reactions containing purified enzyme (1.5 nM JAK1, or 0.2 nM JAK2), 100 mM HEPES buffer (pH 7.2), 0.015% Brij-35, 1.5 μM peptide substrate, ATP (25 μM), 10 mM MgCl2, 4 mM DTT at a final DMSO concentration of 2%. Reactions were incubated at 22° C. in 384-well polypropylene microtiter plates for 30 minutes and then stopped by addition of 25 μL of an EDTA containing solution (100 mM HEPES buffer (pH 7.2), 0.015% Brij-35, 150 mM EDTA), resulting in a final EDTA concentration of 50 mM. After termination of the kinase reaction, the proportion of phosphorylated product was determined as a fraction of total peptide substrate using the Caliper LabChip® 3000 according to the manufacturer's specifications. Ki values were then determined using the Morrison tight binding model (Morrison, J. F., Biochim. Biophys. Acta. 185:269-296 (1969); William, J. W. and Morrison, J. F., Meth. Enzymol., 63:437-467 (1979)) modified for ATP-competitive inhibition [Ki=Ki,app/(1+[ATP]/Km,app)].

[2] = target: T2, isolated recombinant JAK2 kinase domain (Homo sapiens, UniProt O60674); experiment: JAK2 enzyme assay (Caliper LabChip, peptide phosphorylation); format: biochemical; conditions: 0.2 nM JAK2, 25 μM ATP, 22° C., 30 minutes; Morrison tight binding model
T2 construct: The activity of the isolated recombinant JAK1 and JAK2 kinase domain was measured
T2 sequence (O60674 849-1124): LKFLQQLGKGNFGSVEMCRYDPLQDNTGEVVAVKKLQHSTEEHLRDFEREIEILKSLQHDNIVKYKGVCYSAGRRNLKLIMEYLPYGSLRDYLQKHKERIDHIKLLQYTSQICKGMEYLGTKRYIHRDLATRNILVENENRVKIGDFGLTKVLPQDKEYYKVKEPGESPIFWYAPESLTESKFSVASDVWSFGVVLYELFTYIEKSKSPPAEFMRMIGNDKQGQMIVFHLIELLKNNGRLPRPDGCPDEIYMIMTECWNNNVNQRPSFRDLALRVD
Method: as §1, §2

[3] = tested on: JAK1-dependent STAT6 phosphorylation downstream of IL-13 stimulation; experiment: JAK1 pathway assay in BEAS-2B cells (IL-13 stimulated pSTAT6, MSD); format: cell-based; conditions: BEAS-2B human bronchial epithelial cells, 1 hr compound incubation, IL-13 for 15 min; read-out: IL13-pSTAT6 BEAS2B IC50
Method: JAK1 Pathway Assay in Cell Lines was Carried Out as Follows:
Inhibitor potency (EC50) was determined in cell-based assays designed to measure JAK1 dependent STAT phosphorylation. As noted above, inhibition of IL-4, IL-13, and IL-9 signalling by blocking the Jak/Stat signaling pathway can alleviate asthmatic symptoms in pre-clinical lung inflammation models (Mathew et al., 2001, J Exp Med 193(9): 1087-1096; Kudlacz et. al., 2008, Eur J. Pharmacol 582(1-3): 154-161).
In one assay approach, TF-1 human erythroleukemia cells obtained from the American Type Culture Collection (ATCC; Manassas, Va.) were used to measure JAK1-dependent STAT6 phosphorylation downstream of IL-13 stimulation. Prior to use in the assays, TF-1 cells were starved of GM-CSF overnight in OptiMEM medium (Life Technologies, Grand Island, N.Y.) supplemented with 0.5% charcoal/dextran stripped fetal bovine serum (FBS), 0.1 mM non-essential amino acids (NEAA), and 1 mM sodium pyruvate. The assays were run in 384-well plates in serum-free OptiMEM medium using 300,000 cells per well. In a second assay approach, BEAS-2B human bronchial epithelial cells obtained from ATCC were plated at 100,000 cells per well of a 96-well plate one day prior to the experiment. The BEAS-2B assay was run in complete growth medium (bronchial epithelial basal medium plus bulletkit; Lonza; Basel, Switzerland).
Test compounds were serially diluted 1:2 in DMSO and then diluted 1:50 in medium just before use. Diluted compounds were added to the cells, for a final DMSO concentration of 0.2%, and incubated for 30 min (for the TF-1 assay) or 1 hr (for the BEAS-2B assay) at 37° C. Then, cells were stimulated with human recombinant cytokine at their respective EC90 concentrations, as previously determined for each individual lot. Cells were stimulated with IL-13 (R&D Systems, Minneapolis, Minn.) for 15 min at 37° C. The TF-1 cell reactions were stopped by the direct addition of 10× lysis buffer (Cell Signaling Technologies, Danvers, Mass.), whereas the BEAS-2B cell incubations were halted by the removal of medium and addition of 1× lysis buffer. The resultant samples were frozen in the plates at −80° C. Compound mediated inhibition of STAT6 phosphorylation was measured in the cell lysates using MesoScale Discovery (MSD) technology (Gaithersburg, Md.). EC50 values were determined as the concentration of compound required for 50% inhibition of STAT phosphorylation relative to that measured for the DMSO control.

T1 sequence (P23458 875-1153): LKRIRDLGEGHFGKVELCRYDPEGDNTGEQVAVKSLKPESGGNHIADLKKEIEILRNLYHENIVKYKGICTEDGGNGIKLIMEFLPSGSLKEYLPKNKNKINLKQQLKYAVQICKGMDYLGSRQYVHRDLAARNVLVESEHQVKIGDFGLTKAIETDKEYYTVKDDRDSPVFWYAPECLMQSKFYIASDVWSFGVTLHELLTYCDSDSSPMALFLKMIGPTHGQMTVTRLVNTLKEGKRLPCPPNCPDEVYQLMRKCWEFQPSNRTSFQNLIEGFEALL

`CN(C1CCN(C(=O)Cn2cc(NC(=O)c3cnc4cccnn34)c(-c3cc(Cl)ccc3OC(F)F)n2)CC1)C1COC1` [Example 1, N-[3-[5-chloro-2-(difluoromethoxy)phenyl]-1-(2-[4-[methyl(oxetan-3-yl)amino]piperidin-1-yl]-2-oxoethyl)-1H-pyrazol-4-yl]imidazo[1,2-b]pyridazine-3-carboxamide] gave a Ki [1] of 0.33 nM, a Ki [2] of 0.96 nM and an IC50 [3] of 74 nM.
With `O=C(Nc1c[nH]nc1-c1cc(Cl)ccc1OC(F)F)c1cnc2ccc(Cl)nn12` [Example 2, 6-chloro-N-[3-[5-chloro-2-(difluoromethoxy)phenyl]-1H-pyrazol-4-yl]imidazo[1,2-b]pyridazine-3-carboxamide] the Ki [1] was 1.5 nM, the Ki [2] was 0.2 nM and the IC50 [3] was 16 nM.
In the case of `C#Cc1ccc2ncc(C(=O)Nc3c[nH]nc3-c3cc(Cl)ccc3OC(F)F)n2n1` [Example 3, N-[3-[5-chloro-2-(difluoromethoxy)phenyl]-1H-pyrazol-4-yl]-6-ethynyl-imidazo[1,2-b]pyridazine-3-carboxamide], the Ki [1] is reported as 0.29 nM, the Ki [2] is reported as 0.076 nM and the IC50 [3] is reported as 21 nM.
In the case of `O=C(Nc1cn(CC(=O)N2CCC(N3CCOCC3)CC2)nc1-c1cc(Cl)ccc1OC(F)F)c1cnc2cccnn12` [Example 4, N-[3-[5-chloro-2-(difluoromethoxy)phenyl]-1-[2-[4-(morpholin-4-yl)piperidin-1-yl]-2-oxoethyl]-1H-pyrazol-4-yl]imidazo[1,2-b]pyridazine-3-carboxamide], the Ki [1] is reported as 0.36 nM, the Ki [2] is reported as 1.2 nM and the IC50 [3] is reported as 20 nM.
In the case of `N#CC1(CNC2CCN(C(=O)Cn3cc(NC(=O)c4cnc5cccnn45)c(-c4cc(Cl)ccc4OC(F)F)n3)CC2)CC1` [Example 5, N-[3-[5-chloro-2-(difluoromethoxy)phenyl]-1-[2-(4-[[(1-cyanocyclopropyl)-methyl]amino]piperidin-1-yl)-2-oxoethyl]-1H-pyrazol-4-yl]imidazo[1,2-b]pyridazine-3-carboxamide], the Ki [1] is reported as 0.56 nM, the Ki [2] is reported as 2.4 nM and the IC50 [3] is reported as 110 nM.
In the case of `O=C(Nc1c[nH]nc1-c1cc(Cl)ccc1OC(F)F)c1cnc2cccnn12` [Example 6, N-[3-[5-chloro-2-(difluoromelhoxy)phenyl]-1H-pyrazol-4-yl]imidazo[1,2-b]pyridazine-3-carboxamide], the Ki [1] is reported as 0.18 nM, the Ki [2] is reported as 0.063 nM and the IC50 [3] is reported as 4.5 nM.
Compound `NCCn1cc(NC(=O)c2cnc3cccnn23)c(-c2cc(Cl)ccc2OC(F)F)n1` [Example 7, N-[1-(2-aminoethyl)-3-[5-chloro-2-(difluoromethoxy)phenyl]-1H-pyrazol-4-yl]imidazo[1,2-b]pyridazine-3-carboxamide] has a Ki [1] of 0.72 nM, a Ki [2] of 0.53 nM and an IC50 [3] of 34 nM.
With `Cn1cc(NC(=O)c2cnc3cccnn23)c(-c2cc(Cl)ccc2OC(F)F)n1` [Example 8, N-[3-[5-chloro-2-(difluoromethoxy)phenyl]-1-methyl-1H-pyrazol-4-yl]imidazo[1,2-b]pyridazine-3-carboxamide] the Ki [1] was 0.28 nM, the Ki [2] was 0.14 nM and the IC50 [3] was 6 nM.
`O=C(Nc1c[nH]nc1-c1cc(SC2CC2)ccc1OC(F)F)c1cnc2cccnn12` [Example 9, N-[3-[5-(cyclopropylsulfanyl)-2-(difluoromethoxy)phenyl]-1H-pyrazol-4-yl]imidazo[1,2-b]pyridazine-3-carboxamide] was tested, and the Ki [1] was 0.29 nM, the Ki [2] was 0.12 nM and the IC50 [3] was 11 nM.
Compound `CC(C)Sc1ccc(OC(F)F)c(-c2n[nH]cc2NC(=O)c2cnc3cccnn23)c1` [Example 10, N-[3-[2-(difluoromethoxy)-5-(propan-2-ylsulfanyl)phenyl]-1H-pyrazol-4-yl]imidazo[1,2-b]pyridazine-3-carboxamide] has a Ki [1] of 0.41 nM, a Ki [2] of 0.26 nM and an IC50 [3] of 7.5 nM.
Work on `CSc1ccc(OC(F)F)c(-c2nn(CC(=O)N3CCC(CN4CCN(CC(=O)N(C)C)CC4)CC3)cc2NC(=O)c2cnc3cccnn23)c1` [Example 11] yielded a Ki [1] of 0.51 nM, a Ki [2] of 0.69 nM and an IC50 [3] of 200 nM.
`O=C(Nc1cn(CC(=O)N2CCN(CCN3CCOCC3)CC2)nc1-c1cc(Cl)ccc1OC(F)F)c1cnc2cccnn12` [Example 12, N-[3-[5-chloro-2-(difluoromethoxy)phenyl]-1-(2-[4-[2-(morpholin-4-yl)ethyl]piperazin-1-yl]-2-oxoethyl)-1H-pyrazol-4-yl]imidazo[1,2-b]pyridazine-3-carboxamide] was tested, and the Ki [1] was 0.65 nM, the Ki [2] was 2 nM and the IC50 [3] was 150 nM.
`CSc1ccc(OC(F)F)c(-c2n[nH]cc2NC(=O)c2cnc3cccnn23)c1` [Example 13, N-[3-[2-(difluoromethoxy)-5-(methylsulfanyl)phenyl]-1H-pyrazol-4-yl]imidazo[1,2-b]pyridazine-3-carboxamide] showed a Ki [1] of 0.11 nM, a Ki [2] of 0.05 nM and an IC50 [3] of 2.9 nM.
